Measurements taken from patent publication EP0052437A1, “Antibacterial compounds, processes for their preparation and compositions containing them” (BEECHAM GROUP PLC, priority 1980, dated 1982).
In brackets after ≈: the same amount, converted by molar mass.

Tests used:
Assay type in all cases: cell-based
[1] = tested on: M. hyosynoviae ATCC 25591; experiment: Anti-mycoplasmal in vitro MIC; conditions: 144 h, Friis broth solidified with 0.9% agarose, 6 days incubation at 37°C
[2] = tested on: M. suipneumoniae PW/C/210; experiment: Anti-mycoplasmal in vitro MIC; conditions: Mesomycoplasma hyopneumoniae, 144 h, Friis broth solidified with 0.9% agarose, 6 days incubation at 37°C
[3] = tested on: M. suipneumoniae MS 16; experiment: Anti-mycoplasmal in vitro MIC; conditions: Mesomycoplasma hyopneumoniae, MS16, 144 h, Friis broth solidified with 0.9% agarose, 6 days incubation at 37°C
[4] = tested on: M. suipneumoniae ATCC 25095; experiment: Anti-mycoplasmal in vitro MIC; conditions: Mesomycoplasma hyopneumoniae, ATCC25095, 144 h, Friis broth solidified with 0.9% agarose, 6 days incubation at 37°C
[5] = tested on: M. suipneumoniae TAM 6N; experiment: Anti-mycoplasmal in vitro MIC; conditions: Mesomycoplasma hyopneumoniae, TAM6N, 144 h, Friis broth solidified with 0.9% agarose, 6 days incubation at 37°C
[6] = tested on: M. suipneumoniae NCTC 10110; experiment: Anti-mycoplasmal in vitro MIC; conditions: Mesomycoplasma hyopneumoniae, NCTC10110, 144 h, Friis broth solidified with 0.9% agarose, 6 days incubation at 37°C
[7] = tested on: M. suipneumoniae NB12; experiment: Anti-mycoplasmal in vitro MIC; conditions: Mesomycoplasma hyopneumoniae, 144 h, Friis broth solidified with 0.9% agarose, 6 days incubation at 37°C
[8] = tested on: M. suipneumoniae JF 435; experiment: Anti-mycoplasmal in vitro MIC; conditions: Mesomycoplasma hyopneumoniae, JF435, 144 h, Friis broth solidified with 0.9% agarose, 6 days incubation at 37°C
[9] = tested on: M. hyorhinis ATCC 25021; experiment: Anti-mycoplasmal in vitro MIC; conditions: Mesomycoplasma hyorhinis, ATCC25021, 144 h, Friis broth solidified with 0.9% agarose, 6 days incubation at 37°C
[10] = tested on: E. coli ESS; experiment: Human bacteria MIC; conditions: Escherichia coli, nutrient agar with 5% chocolated horse blood, 18 hours at 37°C
Experimental: (§1) The values were determined by serial dilutions in nutrient agar with 5% chocolated horse blood after incubations for 18 hours at 37 °C.

[11] = tested on: K. aerogenes A; experiment: Human bacteria MIC; conditions: Klebsiella aerogenes, nutrient agar with 5% chocolated horse blood, 18 hours at 37°C
Experimental: as §1

[12] = tested on: P. mirabilis 889; experiment: Human bacteria MIC; conditions: Proteus mirabilis, nutrient agar with 5% chocolated horse blood, 18 hours at 37°C
Experimental: as §1

[13] = tested on: Ps. aeruginosa NCTC 10662; experiment: Human bacteria MIC; conditions: Pseudomonas aeruginosa, NCTC10662, nutrient agar with 5% chocolated horse blood, 18 hours at 37°C
Experimental: as §1

[14] = tested on: Pasteurella multocida 1633; experiment: Human bacteria MIC; conditions: nutrient agar with 5% chocolated horse blood, 18 hours at 37°C
Experimental: as §1

[15] = tested on: Sarcina lutea 8340; experiment: Human bacteria MIC; conditions: Micrococcus luteus, nutrient agar with 5% chocolated horse blood, 18 hours at 37°C
Experimental: as §1

[16] = tested on: Corynebacterium xerosis 9755; experiment: Human bacteria MIC; conditions: nutrient agar with 5% chocolated horse blood, 18 hours at 37°C
Experimental: as §1

[17] = tested on: Strep. 641848-C; experiment: Human bacteria MIC; conditions: nutrient agar with 5% chocolated horse blood, 18 hours at 37°C
Experimental: as §1

[18] = tested on: Staph. aureus W2827; experiment: Human bacteria MIC; conditions: Staphylococcus aureus, nutrient agar with 5% chocolated horse blood, 18 hours at 37°C
Experimental: as §1

[19] = tested on: Staph. aureus Russell; experiment: Human bacteria MIC; conditions: Staphylococcus aureus, nutrient agar with 5% chocolated horse blood, 18 hours at 37°C
Experimental: as §1

[20] = tested on: Staph. aureus Oxford; experiment: Human bacteria MIC; conditions: Staphylococcus aureus, nutrient agar with 5% chocolated horse blood, 18 hours at 37°C
Experimental: as §1

[21] = tested on: E. Coli NCTC 10418; experiment: Human bacteria MIC; conditions: Escherichia coli, NCTC10418, nutrient agar with 5% chocolated horse blood, 18 hours at 37°C
Experimental: as §1

[22] = tested on: Bacillus subtilis 6633; experiment: Human bacteria MIC; conditions: nutrient agar with 5% chocolated horse blood, 18 hours at 37°C
Experimental: as §1

[23] = tested on: Neisseria catarrhalis 1502; experiment: Human bacteria MIC; conditions: nutrient agar with 5% chocolated horse blood, 18 hours at 37°C
Experimental: as §1

[24] = tested on: Strep. faecalis I; experiment: Human bacteria MIC; conditions: Enterococcus faecalis, nutrient agar with 5% chocolated horse blood, 18 hours at 37°C
Experimental: as §1

[25] = tested on: M. gallisepticum S6; experiment: Anti-mycoplasmal in vitro MIC; conditions: Mycoplasmoides gallisepticum, 144 h, Friis broth solidified with 0.9% agarose, 6 days incubation at 37°C
[26] = tested on: M. hyorhinis ATCC 23234; experiment: Anti-mycoplasmal in vitro MIC; conditions: Mesomycoplasma hyorhinis, ATCC23234, 144 h, Friis broth solidified with 0.9% agarose, 6 days incubation at 37°C
[27] = tested on: M. suipneumoniae UCD 1; experiment: Anti-mycoplasmal in vitro MIC; conditions: Mesomycoplasma hyopneumoniae, UCD1, 144 h, Friis broth solidified with 0.9% agarose, 6 days incubation at 37°C
[28] = tested on: Strep. uberis SPU1; experiment: Veterinary bacteria MIC; conditions: Streptococcus uberis, Diagnostic Sensitivity Test Agar, 18 hours at 37°C
Experimental: (§2) The values were determined using a two fold serial dilutions.in Diagnostic Sensitivity Test Agar with an inoculum of 10^4 organisms and incubation for 18 hours at 37°C.

[29] = tested on: Bord. bronchiseptica BO8; experiment: Veterinary bacteria MIC; conditions: Bordetella bronchiseptica, Diagnostic Sensitivity Test Agar, 18 hours at 37°C
Experimental: as §2

[30] = tested on: Past. multocida PA2; experiment: Veterinary bacteria MIC; conditions: Pasteurella multocida, Diagnostic Sensitivity Test Agar, 18 hours at 37°C
Experimental: as §2

[31] = tested on: Bord. bronchiseptica BO9; experiment: Veterinary bacteria MIC; conditions: Bordetella bronchiseptica, Diagnostic Sensitivity Test Agar, 18 hours at 37°C
Experimental: as §2

[32] = tested on: M. suipneumoniae J2206/183b; experiment: Anti-mycoplasmal in vitro MIC; conditions: Mesomycoplasma hyopneumoniae, 144 h, Friis broth solidified with 0.9% agarose, 6 days incubation at 37°C
[33] = tested on: M. suipneumoniae LABER; experiment: Anti-mycoplasmal in vitro MIC; conditions: Mesomycoplasma hyopneumoniae, 144 h, Friis broth solidified with 0.9% agarose, 6 days incubation at 37°C
[34] = tested on: M. bovigenitalium ATCC 14173; experiment: Anti-mycoplasmal in vitro MIC; conditions: 144 h, Friis broth solidified with 0.9% agarose, 6 days incubation at 37°C
[35] = tested on: M. pneumoniae ATCC 15492; experiment: Anti-mycoplasmal in vitro MIC; conditions: Mycoplasmoides pneumoniae, ATCC15492, 144 h, Friis broth solidified with 0.9% agarose, 6 days incubation at 37°C
[36] = tested on: M. dispar NCTC 10125; experiment: Anti-mycoplasmal in vitro MIC; conditions: 144 h, Friis broth solidified with 0.9% agarose, 6 days incubation at 37°C

Compound | MIC [1] [mg/L] | MIC [2] [mg/L] | MIC [3] [mg/L] | MIC [4] [mg/L] | MIC [5] [mg/L] | MIC [6] [mg/L] | MIC [7] [mg/L] | MIC [8] [mg/L] | MIC [9] [mg/L] | MIC [10] [mg/L] | MIC [11] [mg/L] | MIC [12] [mg/L] | MIC [13] [mg/L] | MIC [14] [mg/L] | MIC [15] [mg/L] | MIC [16] [mg/L] | MIC [17] [mg/L] | MIC [18] [mg/L] | MIC [19] [mg/L] | MIC [20] [mg/L] | further results
C/C(=C\C(=O)OCc1ccc(C#N)cc1)CC1OCC(CC2OC2C(C)C(C)O)C(O)C1O (stereo not drawn) [Example 3, p-Cyanobenzyl monate A] | < 0.01 | 0.1 (≈ 0.218 µM) | 0.1 (≈ 0.218 µM) | 0.25 (≈ 0.544 µM) | 0.25 (≈ 0.544 µM) | 0.25 (≈ 0.544 µM) | 0.25 (≈ 0.544 µM) | 0.25 (≈ 0.544 µM) | 0.1 (≈ 0.218 µM) | 0.25 (≈ 0.544 µM) | 50 (≈ 109 µM) | 50 (≈ 109 µM) | > 100 | 0.5 (≈ 1.09 µM) | > 100 | > 100 | 0.25 (≈ 0.544 µM) | 0.5 (≈ 1.09 µM) | 0.5 (≈ 1.09 µM) | 0.25 (≈ 0.544 µM) | MIC [21]: 50 mg/L (≈ 109 µM); MIC [22]: 0.1 mg/L (≈ 0.218 µM); MIC [23]: 0.1 mg/L (≈ 0.218 µM); MIC [24]: 100 mg/L (≈ 218 µM); MIC [25]: 0.25 mg/L (≈ 0.544 µM); MIC [26]: 0.1 mg/L (≈ 0.218 µM); MIC [27]: 0.25 mg/L (≈ 0.544 µM); MIC [28]: 0.07 mg/L (≈ 0.152 µM); MIC [29]: 20 mg/L (≈ 43.5 µM); MIC [30]: 0.156 mg/L (≈ 0.339 µM); MIC [31]: 10 mg/L (≈ 21.8 µM); MIC [32]: 0.25 mg/L (≈ 0.544 µM); MIC [33]: 0.1 mg/L (≈ 0.218 µM); MIC [34]: ≤ 0.01 mg/L; MIC [35]: 0.25 mg/L (≈ 0.544 µM); MIC [36]: 0.05 mg/L (≈ 0.109 µM)
C/C(=C\C(=O)OCc1cccc(C#N)c1)CC1OCC(C/C=C/C(C)C(C)O)C(O)C1O (stereo not drawn) [Example 5, m-Cyanobenzyl monate C] | 0.5 (≈ 1.13 µM) | 0.5 (≈ 1.13 µM) | 0.5 (≈ 1.13 µM) | 0.5 (≈ 1.13 µM) | 1 (≈ 2.25 µM) | 1 (≈ 2.25 µM) | 0.5 (≈ 1.13 µM) | 1 (≈ 2.25 µM) | 0.5 (≈ 1.13 µM) | 5 (≈ 11.3 µM) | > 100 | > 100 | > 100 | 10 (≈ 22.5 µM) | > 100 | > 100 | 2.5 (≈ 5.64 µM) | 2.5 (≈ 5.64 µM) | 2.5 (≈ 5.64 µM) | 2.5 (≈ 5.64 µM) | MIC [21]: > 100 mg/L; MIC [22]: 2.5 mg/L (≈ 5.64 µM); MIC [23]: 2.5 mg/L (≈ 5.64 µM); MIC [24]: > 100 mg/L; MIC [25]: 10 mg/L (≈ 22.5 µM); MIC [26]: 0.5 mg/L (≈ 1.13 µM); MIC [27]: 1 mg/L (≈ 2.25 µM); MIC [28]: 0.156 mg/L (≈ 0.352 µM); MIC [29]: > 80 mg/L; MIC [30]: 5 mg/L (≈ 11.3 µM); MIC [31]: 20 mg/L (≈ 45.1 µM); MIC [32]: 1 mg/L (≈ 2.25 µM); MIC [33]: 0.5 mg/L (≈ 1.13 µM); MIC [34]: 0.1 mg/L (≈ 0.225 µM); MIC [35]: 5 mg/L (≈ 11.3 µM); MIC [36]: 0.1 mg/L (≈ 0.225 µM)
C/C(=C\C(=O)OCc1cccc(C#N)c1)CC1OCC(CC2OC2C(C)C(C)O)C(O)C1O (stereo not drawn) [Example 2, m-Cyanobenzyl monate A] | 0.05 (≈ 0.109 µM) | 0.05 (≈ 0.109 µM) | 0.05 (≈ 0.109 µM) | 0.05 (≈ 0.109 µM) | 0.1 (≈ 0.218 µM) | 0.05 (≈ 0.109 µM) | 0.05 (≈ 0.109 µM) | 0.1 (≈ 0.218 µM) | 0.025 (≈ 0.0544 µM) | 0.5 (≈ 1.09 µM) | 100 (≈ 218 µM) | 100 (≈ 218 µM) | > 100 | 1 (≈ 2.18 µM) | > 100 | > 100 | 1 (≈ 2.18 µM) | 1 (≈ 2.18 µM) | 2.5 (≈ 5.44 µM) | 1 (≈ 2.18 µM) | MIC [21]: 50 mg/L (≈ 109 µM); MIC [22]: 0.5 mg/L (≈ 1.09 µM); MIC [23]: 0.25 mg/L (≈ 0.544 µM); MIC [24]: 100 mg/L (≈ 218 µM); MIC [25]: 2.5 mg/L (≈ 5.44 µM); MIC [26]: 0.025 mg/L (≈ 0.0544 µM); MIC [27]: 0.1 mg/L (≈ 0.218 µM); MIC [28]: 0.312 mg/L (≈ 0.679 µM); MIC [29]: 20 mg/L (≈ 43.5 µM); MIC [30]: 0.156 mg/L (≈ 0.339 µM); MIC [31]: 10 mg/L (≈ 21.8 µM); MIC [32]: 0.05 mg/L (≈ 0.109 µM); MIC [33]: 0.05 mg/L (≈ 0.109 µM); MIC [34]: ≤ 0.01 mg/L; MIC [35]: 0.5 mg/L (≈ 1.09 µM); MIC [36]: 0.025 mg/L (≈ 0.0544 µM)
